According to patent publication US11597708B2, “Inhibitors of heat shock factors and uses thereof” (HSF Pharmaceuticals SA, priority 2016, dated 2023):
Structures can show the parent of a compound that is named as a salt. Where two headings read alike, the source gives them in different places.

Legend:
HSE DNA-binding activity = biological target: T1, HSE DNA-binding activity (Homo sapiens, UniProt Q00613); assay: EMSA using extracts of heat-treated HeLa cells, in the presence of IHSF; format: biochemical; conditions: extracts of HeLa cells heat-treated at 43° C. for 30 min; concentrations as high as about 0.5 mM
T1 construct: functionally linked to an hsp70b promoter and therefore controlled by endogenous HSF1; endogenous in cells; host or cells: HeLa cells / HeLa-derived cell line Z74
T1 sequence (Q00613 1-529): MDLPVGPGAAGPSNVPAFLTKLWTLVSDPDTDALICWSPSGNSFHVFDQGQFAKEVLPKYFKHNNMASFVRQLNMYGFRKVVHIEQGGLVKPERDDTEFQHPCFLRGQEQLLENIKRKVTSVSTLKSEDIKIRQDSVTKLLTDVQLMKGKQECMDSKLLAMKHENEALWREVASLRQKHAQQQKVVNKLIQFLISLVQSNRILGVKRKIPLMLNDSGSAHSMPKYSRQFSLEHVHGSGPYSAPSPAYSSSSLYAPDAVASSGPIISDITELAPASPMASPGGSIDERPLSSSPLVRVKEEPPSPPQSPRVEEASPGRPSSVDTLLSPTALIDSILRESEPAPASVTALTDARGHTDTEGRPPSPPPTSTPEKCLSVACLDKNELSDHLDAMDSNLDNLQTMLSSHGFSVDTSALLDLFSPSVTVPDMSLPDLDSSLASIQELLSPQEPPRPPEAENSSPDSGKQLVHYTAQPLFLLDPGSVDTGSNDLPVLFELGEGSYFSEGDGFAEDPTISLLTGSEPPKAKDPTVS
Experimental: Electrophoretic mobility shift assays (EMSA) using a radiolabeled HSE DNA probe were carried out to assess HSF1 DNA-binding activity in extracts of heat-treated (43° C./30 min) HeLa cells that had been exposed to different concentrations of compounds 058 or 115 (FIG. 3A, top panels). […] HSF1 degradation correlated well with the observed decrease in DNA-binding activity. Therefore, HSF1 degradation provides a sufficient explanation for the reduced HSE DNA-binding activity in cells treated with IHSF 058. […] EMSA were also carried out using extracts of HeLa cells that had been heat-treated at 43° C. for 30 min.

HSF1 = biological target: T2, HSF1 (Homo sapiens, UniProt Q00613); assay: Z74 cell-based reporter assay: heat-induced RLuc expression controlled by endogenous HSF1; conditions: for IC50: inhibition of HSF1 activity [RLuc]; for inhibition at 12.5 µM: read-out: Inhibition of HSF1 activity at 12.5 μM IHSF [RLuc] (%); for inhibition at 25 µM: read-out: Inhibition of HSF1 activity at 25 μM IHSF [RLuc] (%)
T2 construct: functionally linked to an hsp70b promoter and therefore controlled by endogenous HSF1; endogenous in cells; host or cells: HeLa cells / HeLa-derived cell line Z74
T2 sequence (Q00613 1-529): T1 sequence (Q00613 1-529)
Text: For screening this sublibrary, a cell-based assay was developed. We opted for a cell-based assay, because a cell-free assay would have had to be a DNA-binding assay. Such an assay would have limited discovery to molecules capable of interfering with the DNA-binding function of HSF1. This was thought to be too narrow a focus, considering that three of the four cavities identified in the HSF1 DNA-binding domain are not near the DNA interaction region. A straightforward cell-based assay, in which a HSF1-responsive gene would be assayed, was considered likely to be over-inclusive. Compounds would be scored as hits that inhibit any factor that is involved in HSF1 activation or prevents HSF1 deactivation. These factors include protein kinases, activators of protein phosphatases, factors affecting HSF1 mRNA stability, HSP90, HDAC6, etc. For developing a more discriminating cell-based assay, advantage was taken of the modular nature of HSF1. […] The cell-based assay developed (see below for the particular format employed) compared transactivation by wild type HSF1 and chimeric HSF1 in cells exposed to an HSF1-activating heat treatment in the presence of a sublibrary compound. A compound was scored as a hit, if it inhibited the activity of wild type HSF1 but not of chimeric HSF1.
The cell-based assay made use of HeLa-derived cell line Z74 that stably contains a gene for chimeric transcription factor LexA-(human) HSF1 under the control of a CMV early promoter, a firefly luciferase (flue) gene driven by a promoter responsive to the latter chimeric transcription factor and a Renilla luciferase (rluc) gene functionally linked to an hsp70b promoter and therefore controlled by endogenous HSF1 (FIG. 1A). As is shown in FIGS. 1B & C, the reporter genes responded similarly to heat dose, i.e., their activation depended on both duration of heat exposure and temperature of the exposure. […] Depletion of HSF1 (and LexA-HSF1) by siRNA supported the notion that this stress regulation is mediated by HSF1 (and LexA-HSF1). Therefore, the Z74 line was well suited for use in a screening assay aimed at discovering molecules that inhibit heat-induced HSF1 activity through interaction with the transcription factor's DNA-binding domain.
The compounds of the afore-mentioned biased sublibrary were screened in cell line Z74 at 12.5 and 25 μM concentrations. Typically, Z74 cultures in 96-well plates were exposed to compound or vehicle for 2 h, heat-treated at 43.0° C. for 30 min, and incubated further for 6 h at 37° C. to allow for accumulation of the luciferases. RLuc and FLuc activities were determined, typically using the Dual-Glo® Luciferase Assay System (Promega Corp., Madison, Wis.), and reading luciferase light counts in a Wallac Microbeta Trilux-1450 Luminometer (PerkinElmer, Waltham, Mass.). IHSF 001 was one of two library compounds that inhibited RLuc expression but not FLuc expression in heat-treated Z74 cells (Table 1; FIG. 2A). Therefore, IHSF 001 is an inhibitor of HSF1 function that specifically acts through the HSF1 DNA-binding domain. […] A corroborating experiment utilized a cell line containing an hsp70b promoter-driven fluc gene. […] IHSF 001 is (E)-ethyl 4-oxo-4-(thiazol-2-ylamino)but-2-enoate. The compound can be obtained from commercial sources (e.g., AKE-PB-90340538, Akos).

[1] = Z74 cells, 12.5 μM IHSF, negative values marked *: compound enhanced rLuc activity
[2] = Z74 cells, 25 μM IHSF, 2 h exposure, 43° C. 30 min, 6 h at 37° C.

Structure (SMILES)	HSE DNA-binding activity (EMSA) in the presence of IHSF (HSE DNA-binding activity)	IC50 (HSF1; Z74 cells)	inhibition at 12.5 µM (HSF1; [1])	inhibition at 25 µM (HSF1; [2])	inhibition at 12.5 µM (HSF1)	inhibition at 25 µM (HSF1)
CCOC(=O)/C=C/C(=O)Nc1nc(C)cs1 [IHSF 011, (E)-3-(4-Methyl-thiazol-2-ylcarbamoyl)-acrylic acid ethyl ester]	no reduction	7 µM	69%	83%	–	–
CCOC(=O)/C=C/C(=O)Nc1ccnc(N2CCOCC2)c1 [IHSF 077, (E)-3-(2-Morpholin-4-yl-pyridin-4-ylcarbamoyl)-acrylic acid ethyl ester formic acid salt]	–	–	–	–	42%	67%
CCOC(=O)/C=C/C(=O)Nc1ccnc(N2CCN(C)CC2)c1 [IHSF 078, (E)-3-[2-(4-Methyl-piperazin-1-yl)-pyridin-4-ylcarbamoyl]-acrylic acid ethyl ester formic acid salt]	–	–	–	–	32%	54%
CCOC(=O)/C=C/C(=O)Nc1ccnc(-c2ccccc2C)c1 [IHSF 079, (E)-3-(2-o-Tolyl-pyridin-4-ylcarbamoyl)-acrylic acid ethyl ester]	–	–	42%	79%	–	–
CCOC(=O)/C=C/C(=O)Nc1ccnc(-c2cccc(C)c2)c1 [IHSF 080, (E)-3-(2-m-Tolyl-pyridin-4-ylcarbamoyl)-acrylic acid ethyl ester]	–	–	55%	71%	–	–
CCOC(=O)/C=C/C(=O)Nc1ccnc(-c2ccc(C)cc2)c1 [IHSF 081, (E)-3-(2-p-Tolyl-pyridin-4-ylcarbamoyl)-acrylic acid ethyl ester formic acid salt]	–	–	–	–	42%	65%
CCOC(=O)/C=C/C(=O)Nc1cc(C)nc(C)c1 [IHSF 082, (E)-3-(2,6-Dimethyl-pyridin-4-ylcarbamoyl)-acrylic acid ethyl ester]	–	–	58%	91%	–	–
CCOC(=O)/C=C/C(=O)Nc1ccncc1C [IHSF 083, (E)-3-(3-Methyl-pyridin-4-ylcarbamoyl)-acrylic acid ethyl ester]	–	–	24%	34%	–	–
CCOC(=O)/C=C/C(=O)Nc1ccnc(-c2cccnc2)c1 [IHSF 086, (E)-3-([2,3′]Bipyridmyl-4-ylcarbamoyl)-acrylic acid ethyl ester]	–	–	47%	78%	–	–
O=C(/C=C/c1ncccn1)Nc1nccs1 [IHSF 088, (E)-3-(Pyrimidin-2-yl)-N-(thiazol-2-yl)acrylamide]	–	–	25%	31%	–	–
O=C(/C=C/c1ncno1)Nc1nccs1 [IHSF 089, (E)-3-(1,2,4-Oxadiazol-5-yl)-N-(thiazol-2-yl)acrylamide]	–	17.9 µM	41%	61%	–	–
O=C(/C=C/C1=NCCCO1)Nc1nccs1 [IHSF 090, (E)-3-(5,6-Dihydro-4H-[1,3]oxazin-2-yl)-N-thiazol-2-yl-acrylamide]	–	5.4 µM	78%	98%	–	–
O=C(/C=C/c1nnco1)Nc1nccs1 [IHSF 091, (E)-3-(1,3,4-Oxadiazol-2-yl)-N-(thiazol-2-yl)acrylamide]	–	> 25 µM	22%	27%	–	–
O=C(/C=C/C1=NCCO1)Nc1nccs1 [IHSF 092, (E)-3-(4,5-Dihydro-oxazol-2-yl)-N-thiazol-2-yl-acrylamide]	–	4.7 µM	90%	99%	–	–
CCCC(=O)/C=C/C(=O)Nc1nccs1 [IHSF 095, (E)-4-Oxo-N-(thiazol-2-yl)hept-2-enamide]	–	–	6%	44%	–	–
CCOC(=O)/C=C/C(=O)N(CCc1ccncc1)c1nccs1 [IHSF 099, (E)-3-[(2-Pyridin-4-yl-ethyl)-thiazol-2-yl-carbamoyl]-acrylic acid ethyl ester]	–	18 µM	17%	95%	–	–
CCOC(=O)/C=C/C(=O)N(CCN1CCOCC1)c1nccs1 [IHSF 101, (E)-3-[(2-Morpholin-4-yl-ethyl)-thiazol-2-yl-carbamoyl]-acrylic acid ethyl ester]	–	> 25 µM	-30%	48%	–	–
CCOC(=O)/C=C/C(=O)Nc1nc(C(=O)OC)c(-c2ccccc2)s1 [IHSF 105, 2-((E)-3 -Ethoxycarbonyl-acryloylamino)-5-phenyl-thiazole-4-carboxylic acid methyl ester]	–	10.8 µM	69%	96%	–	–
CCOC(=O)/C=C/C(=O)Nc1nc(CC)c(-c2ccccc2)s1 [IHSF 107, (E)-3-(4-Ethyl-5-phenyl-thiazol-2-ylcarbamoyl)-acrylic acid ethyl ester]	–	10.6 µM	62%	92%	–	–
CCOC(=O)/C=C/C(=O)N(CCc1cn(C)cn1)c1nccs1 [IHSF 108]	–	19.6 µM	-6%	89%	–	–
CCOC(=O)/C=C/C(=O)Nc1nc(C(N)=O)c(-c2ccccc2)s1 [IHSF 109, (E)-3-(4-Carbamoyl-5-phenyl-thiazol-2-ylcarbamoyl)-acrylic acid ethyl ester]	–	11.2 µM	53%	88%	–	–
CCOC(=O)/C=C/C(=O)N(CCc1ccccn1)c1nccs1 [IHSF 112, (E)-3-[(2-Pyridin-2-yl-ethyl)-thiazol-2-yl-carbamoyl]-acrylic acid ethyl ester]	–	> 25 µM	13%	26%	–	–
